Laboratory results from US8729224B2, “Melanocortin receptor-specific peptides for treatment of female sexual dysfunction” (Palatin Technologies, Inc., priority 2008, dated 2014).

What was measured:
[1] = system: penile erection in male Sprague-Dawley rats; experiment: Induction of penile erection in male rats; assay type: in vivo, rat; conditions: for observed spontaneous erections compared to vehicle controls: rat model
systolic blood pressure = conditions: rat, in vivo
Excerpt: In other studies, including comparisons of the same quantities of the cyclic peptide of Example 8.1 and bremelanotide by the same routes of administration, substantially similar results were obtained. […] In other studies, including comparisons of the same quantities of the cyclic peptide of Example 8.4 and bremelanotide by the same routes of administration, substantially similar results were obtained.

hMC4-R [2] = biological target: T1, hMC4-R (Homo sapiens, UniProt P32245); experiment: Competitive inhibition binding assay using NDP-α-MSH, MC4-R; conditions: for Ki: competitive studies using NDP-α-MSH, human recombinant receptor, average of studies
T1 construct: expressed in transfected cells; host or cells: HEK-293
T1 sequence (P32245 whole entry): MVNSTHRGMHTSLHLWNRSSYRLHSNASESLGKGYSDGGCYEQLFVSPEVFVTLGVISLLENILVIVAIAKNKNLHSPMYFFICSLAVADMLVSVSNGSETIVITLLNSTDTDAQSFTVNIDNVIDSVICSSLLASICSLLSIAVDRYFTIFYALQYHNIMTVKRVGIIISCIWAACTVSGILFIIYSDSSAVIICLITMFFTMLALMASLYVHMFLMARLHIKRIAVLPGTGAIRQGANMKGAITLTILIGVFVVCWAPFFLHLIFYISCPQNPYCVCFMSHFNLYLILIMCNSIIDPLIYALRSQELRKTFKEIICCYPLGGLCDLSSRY
Description: A competitive inhibition binding assay is performed using membrane homogenates prepared from HEK-293 cells that express recombinant hMC4-R, hMC3-R, or hMC5-R, and from B-16 mouse melanoma cells (containing endogenous MC1-R). In some instances, HEK-293 cells that express recombinant hMC1-R were employed. In the examples that follow, all MC3-R, MC4-R and MC5-R values are for human recombinant receptors. MC1-R values are for B-16 mouse melanoma cells, unless the heading is “hMC1-R”, in which case the value is for human recombinant MC1-R. Assays were performed in 96 well GF/B Millipore multiscreen filtration plates (MAFB NOB10) pre-coated with 0.5% bovine serum albumin (Fraction V). Membrane homogenates were incubated with 0.2 nM (for hMC4-R) 0.4 nM (for MC3-R and MC5-R) or 0.1 nM (for mouse B16 MC1-R or hMC1-R) [I^125]-NDP-α-MSH (Perkin Elmer) and increasing concentrations of cyclic peptides of the present invention in buffer containing 25 mM HEPES buffer (pH 7.5) with 100 mM NaCl, 2 mM CaCl2, 2 mM MgCl2, 0.3 mM 1,10-phenanthroline, and 0.2% bovine serum albumin. After incubation for 60 minutes at 37° C., the assay mixture was filtered and the membranes washed three times with ice-cold buffer. Filters were dried and counted in a gamma counter for bound radioactivity. […] Maximal specific binding (100%) was defined as the difference in radioactivity (cpm) bound to cell membranes in the absence and presence of 1 μM NDP-α-MSH. […] Ki values for cyclic peptides of the present invention were determined using Graph-Pad Prism® curve-fitting software. […]
Alternatively, a competitive inhibition binding assay was performed employing Eu-NDP-α-MSH (PerkinElmer Life Sciences catalog No. AD0225) with determination by time-resolved fluorometry (TRF) of the lanthanide chelate. […] The plates were incubated on a shaker for 15 minutes and read at 340 nm excitation and 615 nm emission wavelengths. […] Ki values were determined by curve-fitting with Graph-Pad Prism® software using a one-site fixed-slope competition binding model. […]

hMC4-R [3] = biological target: T1, hMC4-R; experiment: Assay for agonist activity (cAMP accumulation in HEK-293 cells expressing hMC4-R); assay type: cell-based
Description: Accumulation of intracellular cAMP is examined as a measure of the ability of the cyclic peptides of the present invention to elicit a functional response in HEK-293 cells that express MC4-R. Confluent HEK-293 cells that express recombinant hMC4-R were detached from culture plates by incubation in enzyme-free cell dissociation buffer. Dispersed cells were suspended in Earle's Balanced Salt Solution containing 10 mM HEPES (pH 7.5), 1 mM MgCl2, 1 mM glutamine, 0.5% albumin and 0.3 mM 3-isobutyl-1-methyl-xanthine (IBMX), a phosphodiesterase inhibitor. The cells were plated in 96-well plates at a density of 0.5×10^5 cells per well and pre-incubated for 30 minutes. Cells were exposed for 1 hour at 37° C. to test cyclic peptides of the present invention dissolved in DMSO (final DMSO concentration of 1%) at a concentration range of 0.05-5000 nM in a total assay volume of 200 μL. NDP-α-MSH was used as the reference agonist. At the end of the incubation period, cells were disrupted by the addition of 50 μL of lysis buffer (cAMP EIA kit, Amersham) followed by vigorous pipetting. Levels of cAMP in the lysates were determined using a cAMP EIA kit (Amersham). Data analysis was performed by nonlinear regression analysis with Graph-Pad Prism® software. The maximum efficacies of the cyclic peptides of the present invention were compared to that achieved by the reference melanocortin agonist NDP-αMSH.

[4] = biological target: T2, MC1-R (B-16 mouse melanoma cells) (Mus musculus, UniProt Q01727); experiment: Competitive inhibition binding assay using NDP-α-MSH, MC1-R; conditions: competitive studies using NDP-α-MSH
T2 construct: from B-16 mouse melanoma cells (containing endogenous MC1-R); endogenous in cells; host or cells: B-16 mouse melanoma cells
T2 sequence (Q01727 whole entry): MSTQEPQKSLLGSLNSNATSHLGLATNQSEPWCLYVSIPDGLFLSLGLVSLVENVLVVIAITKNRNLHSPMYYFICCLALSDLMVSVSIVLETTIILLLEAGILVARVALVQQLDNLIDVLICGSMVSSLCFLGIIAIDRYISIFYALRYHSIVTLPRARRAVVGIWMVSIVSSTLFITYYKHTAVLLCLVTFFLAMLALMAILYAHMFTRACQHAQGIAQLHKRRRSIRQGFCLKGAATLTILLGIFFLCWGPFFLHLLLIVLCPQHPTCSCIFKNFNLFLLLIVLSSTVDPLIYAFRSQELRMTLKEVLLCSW
Description: (§1) A competitive inhibition binding assay is performed using membrane homogenates prepared from HEK-293 cells that express recombinant hMC4-R, hMC3-R, or hMC5-R, and from B-16 mouse melanoma cells (containing endogenous MC1-R). In some instances, HEK-293 cells that express recombinant hMC1-R were employed. In the examples that follow, all MC3-R, MC4-R and MC5-R values are for human recombinant receptors. MC1-R values are for B-16 mouse melanoma cells, unless the heading is “hMC1-R”, in which case the value is for human recombinant MC1-R. Assays were performed in 96 well GF/B Millipore multiscreen filtration plates (MAFB NOB10) pre-coated with 0.5% bovine serum albumin (Fraction V). […] Filters were dried and counted in a gamma counter for bound radioactivity. […] Maximal specific binding (100%) was defined as the difference in radioactivity (cpm) bound to cell membranes in the absence and presence of 1 μM NDP-α-MSH. […] Ki values for cyclic peptides of the present invention were determined using Graph-Pad Prism® curve-fitting software. […]

hMC3-R = biological target: T3, hMC3-R (Homo sapiens, UniProt P41968); experiment: Competitive inhibition binding assay using NDP-α-MSH, MC3-R; conditions: competitive studies using NDP-α-MSH; human recombinant receptor
T3 construct: expressed in transfected cells; host or cells: HEK-293
T3 sequence (P41968 whole entry): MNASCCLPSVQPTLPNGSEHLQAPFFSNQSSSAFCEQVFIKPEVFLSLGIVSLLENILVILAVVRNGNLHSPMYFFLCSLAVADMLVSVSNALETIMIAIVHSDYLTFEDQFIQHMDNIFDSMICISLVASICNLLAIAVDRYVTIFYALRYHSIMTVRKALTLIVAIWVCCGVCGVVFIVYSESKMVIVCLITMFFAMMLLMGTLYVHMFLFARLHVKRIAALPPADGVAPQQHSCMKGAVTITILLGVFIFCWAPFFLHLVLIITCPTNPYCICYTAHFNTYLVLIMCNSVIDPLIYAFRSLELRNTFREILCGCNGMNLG
Description: as §1
(§2) Alternatively, a competitive inhibition binding assay was performed employing Eu-NDP-α-MSH (PerkinElmer Life Sciences catalog No. AD0225) with determination by time-resolved fluorometry (TRF) of the lanthanide chelate. […] The plates were incubated on a shaker for 15 minutes and read at 340 nm excitation and 615 nm emission wavelengths. […]

hMC5-R = biological target: T4, hMC5-R (Homo sapiens, UniProt P33032); experiment: Competitive inhibition binding assay using NDP-α-MSH, MC5-R; conditions: competitive studies using NDP-α-MSH; human recombinant receptor
T4 construct: expressed in transfected cells; host or cells: HEK-293
T4 sequence (P33032 whole entry): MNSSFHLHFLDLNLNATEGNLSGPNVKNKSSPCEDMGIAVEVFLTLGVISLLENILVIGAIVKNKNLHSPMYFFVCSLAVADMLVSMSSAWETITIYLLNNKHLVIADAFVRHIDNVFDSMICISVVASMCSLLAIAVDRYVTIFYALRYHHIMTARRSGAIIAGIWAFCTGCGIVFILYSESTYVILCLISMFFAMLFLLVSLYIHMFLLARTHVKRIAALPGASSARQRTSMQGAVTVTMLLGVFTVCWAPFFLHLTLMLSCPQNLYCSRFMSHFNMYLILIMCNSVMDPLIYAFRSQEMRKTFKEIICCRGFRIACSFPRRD
Description: as §1, §2

SMILES | penile erections per rat per hour compared to bremelanotide (companion studies) ([1]; 3.0 μmol/kg subcutaneous vs bremelanotide 1 μmol/kg IV) | observed spontaneous erections compared to vehicle controls ([1]; subcutaneous) | spontaneous erections per rat in one hour ([1]; subcutaneous, 0.3 mg/kg, n=7) | spontaneous erections per rat in one hour ([1]; subcutaneous, 1.0 mg/kg, n=7) | increase of systolic blood pressure compared to a dose of bremelanotide producing comparable penile erection results (systolic blood pressure) | receptor selectivity in binding (hMC4-R [2]; MC1-R, MC3-R, MC4-R and MC5-R binding compared) | functional status at MC4-R (hMC4-R [3]; functional studies) | Ki [4] [nM] | Ki (hMC3-R) [nM] | Ki (hMC4-R [2]) [nM] | Ki (hMC5-R) [nM] | penile erections per rat per hour compared to bremelanotide (companion studies) ([1]; 1 mg/kg subcutaneous vs bremelanotide 1 mg/kg IV) | Emax (hMC4-R [3]; HEK293, NDP-α-MSH is 100%, read-out: intrinsic activity at MC4-R) [%] | EC50 (hMC4-R [3]; functional studies, cAMP, average of studies, read-out: EC50 at MC4-R) [nM] | spontaneous erections per rat in one hour ([1]; IV, 1 mg/kg, n=7, positive control)
CC(=O)N[C@@H](CCCNC(=N)N)C(=O)N[C@H]1CC(=O)NCCCC[C@@H](C(N)=O)NC(=O)[C@H](Cc2c[nH]c3ccccc23)NC(=O)[C@H](CCCNC(=N)N)NC(=O)[C@@H](Cc2ccccc2)NC(=O)[C@H](CCN)NC1=O [Example 8.1, Ac-Arg-cyclo(Asp-Dab-D-Phe-Arg-Trp-Lys)-NH2] | same or higher penile erection results | statistically significant increase | 2.286±0.286 | 4.571±1.088 | less increase of systolic blood pressure | selective for MC4-R | agonist |  |  |  |  |  |  |  | 
CC(=O)N[C@@H](CCCNC(=N)N)C(=O)N[C@H]1CCC(=O)NCCC[C@@H](C(N)=O)NC(=O)[C@H](Cc2c[nH]c3ccccc23)NC(=O)[C@H](CCCNC(=N)N)NC(=O)[C@@H](Cc2ccccc2)NC(=O)[C@H](CCN)NC1=O [Example 8.3, Ac-Arg-cyclo(Glu-Dab-D-Phe-Arg-Trp-Orn)-NH2] |  |  |  |  |  |  | agonist | 1 | 74 | 0.65 | 300 |  |  |  | 
CC(=O)N[C@@H](CCCNC(=N)N)C(=O)N[C@H]1CCC(=O)NCCC[C@@H](C(=O)O)NC(=O)[C@H](Cc2c[nH]c3ccccc23)NC(=O)[C@H](CCCNC(=N)N)NC(=O)[C@@H](Cc2ccccc2)NC(=O)[C@H](CCN)NC1=O [Example 8.4, Ac-Arg-cyclo(Glu-Dab-D-Phe-Arg-Trp-Orn)-OH] |  | statistically significant increase | 2.571±0.685 | 5.286±0.918 | less increase of systolic blood pressure |  | agonist | 4 | 410 | 8 | 2370 | same or higher penile erection results | 91 | 3 | 
CCCC[C@H](NC(C)=O)C(=O)N[C@H]1CC(=O)NCCCC[C@@H](C(=O)O)NC(=O)[C@H](Cc2c[nH]c3ccccc23)NC(=O)[C@H](CCCN=C(N)N)NC(=O)[C@@H](Cc2ccccc2)NC(=O)[C@H](Cc2cnc[nH]2)NC1=O [bremelanotide, Ac-Nle-cyclo(Asp-His-D-Phe-Arg-Trp-Lys)-OH, reference compound] |  |  |  |  |  |  |  |  |  |  |  |  |  |  | 4±0.535
